These results are taken from PMC7827406, “Structure–Activity Relationship (SAR) Study of Spautin-1 to Entail the Discovery of Novel NEK4 Inhibitors” (International Journal of Molecular Sciences, 2021).

Holding throughout (assay): biochemical
Holding throughout (parameters): Eurofins KinaseProfiler full panel at Km ATP, residual kinase activity (%) relative to DMSO

One assay deals with T1, JNK2α2(h) (Homo sapiens, UniProt P45984).
T1 construct: gene MAPK9; isoform alpha2
In a few lines: (§1)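 Compounds screened at 10 µM in radiometric kinase activity assays at Km ATP, reported as remaining kinase activity (%). A KINOMEscan competition-binding screen at 10 µM measured DNA-tagged kinase retained on immobilized active-site ligand by qPCR.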

The next assay deals with T2, Rsk4(h) (Homo sapiens, UniProt Q9UK32).
T2 construct: gene RPS6KA6
T2 sequence (Q9UK32 whole entry): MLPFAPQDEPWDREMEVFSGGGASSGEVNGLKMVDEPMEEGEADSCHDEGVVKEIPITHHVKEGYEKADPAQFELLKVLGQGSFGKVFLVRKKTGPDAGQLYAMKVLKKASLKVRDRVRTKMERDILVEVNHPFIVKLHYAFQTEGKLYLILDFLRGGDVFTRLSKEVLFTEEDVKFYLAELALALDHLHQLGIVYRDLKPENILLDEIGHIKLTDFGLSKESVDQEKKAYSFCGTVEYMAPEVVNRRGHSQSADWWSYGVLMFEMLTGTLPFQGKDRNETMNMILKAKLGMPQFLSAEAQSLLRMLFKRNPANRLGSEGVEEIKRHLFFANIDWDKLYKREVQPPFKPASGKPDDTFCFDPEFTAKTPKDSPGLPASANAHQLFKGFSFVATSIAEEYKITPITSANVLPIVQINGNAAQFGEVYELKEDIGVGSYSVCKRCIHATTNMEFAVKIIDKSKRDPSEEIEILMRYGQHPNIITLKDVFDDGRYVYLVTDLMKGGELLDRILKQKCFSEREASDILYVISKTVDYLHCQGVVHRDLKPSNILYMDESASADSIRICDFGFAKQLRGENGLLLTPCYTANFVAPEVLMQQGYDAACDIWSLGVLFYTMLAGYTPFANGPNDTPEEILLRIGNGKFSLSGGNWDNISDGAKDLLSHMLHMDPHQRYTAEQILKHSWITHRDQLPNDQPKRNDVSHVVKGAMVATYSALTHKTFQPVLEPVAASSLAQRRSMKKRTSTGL
In a few lines: as §1

A further assay concerns the target T3, TTK(h) (Homo sapiens, UniProt P33981).
T3 sequence (P33981 1-857): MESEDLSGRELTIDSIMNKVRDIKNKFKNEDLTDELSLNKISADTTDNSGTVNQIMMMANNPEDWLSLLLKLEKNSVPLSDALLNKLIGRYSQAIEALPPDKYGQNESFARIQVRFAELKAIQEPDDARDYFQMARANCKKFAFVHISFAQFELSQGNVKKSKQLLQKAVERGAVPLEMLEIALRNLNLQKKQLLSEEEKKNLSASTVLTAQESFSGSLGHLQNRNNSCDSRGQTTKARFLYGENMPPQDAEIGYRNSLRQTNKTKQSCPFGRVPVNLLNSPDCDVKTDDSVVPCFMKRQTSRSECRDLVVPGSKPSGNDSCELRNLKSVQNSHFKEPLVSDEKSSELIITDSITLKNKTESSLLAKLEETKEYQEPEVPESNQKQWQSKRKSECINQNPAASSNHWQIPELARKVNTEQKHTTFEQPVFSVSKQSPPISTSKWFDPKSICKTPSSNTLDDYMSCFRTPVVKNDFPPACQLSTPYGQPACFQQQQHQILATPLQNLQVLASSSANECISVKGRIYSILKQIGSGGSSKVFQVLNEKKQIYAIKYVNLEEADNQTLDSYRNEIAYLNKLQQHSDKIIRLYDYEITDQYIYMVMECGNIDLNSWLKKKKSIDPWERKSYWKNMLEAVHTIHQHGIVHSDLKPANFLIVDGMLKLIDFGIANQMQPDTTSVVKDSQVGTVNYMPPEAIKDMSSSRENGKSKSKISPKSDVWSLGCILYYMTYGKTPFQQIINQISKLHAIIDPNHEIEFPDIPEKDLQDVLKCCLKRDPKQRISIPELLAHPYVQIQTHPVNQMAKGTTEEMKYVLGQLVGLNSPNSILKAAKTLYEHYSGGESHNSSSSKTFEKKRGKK
In a few lines:
as §1

The next assay addresses CDK2/cyclinA(h) (Homo sapiens, UniProt P24941). In a few lines:
as §1

Another assay deals with T4, ULK2(h) (Homo sapiens, UniProt Q8IYT8).
T4 sequence (Q8IYT8 1-1036): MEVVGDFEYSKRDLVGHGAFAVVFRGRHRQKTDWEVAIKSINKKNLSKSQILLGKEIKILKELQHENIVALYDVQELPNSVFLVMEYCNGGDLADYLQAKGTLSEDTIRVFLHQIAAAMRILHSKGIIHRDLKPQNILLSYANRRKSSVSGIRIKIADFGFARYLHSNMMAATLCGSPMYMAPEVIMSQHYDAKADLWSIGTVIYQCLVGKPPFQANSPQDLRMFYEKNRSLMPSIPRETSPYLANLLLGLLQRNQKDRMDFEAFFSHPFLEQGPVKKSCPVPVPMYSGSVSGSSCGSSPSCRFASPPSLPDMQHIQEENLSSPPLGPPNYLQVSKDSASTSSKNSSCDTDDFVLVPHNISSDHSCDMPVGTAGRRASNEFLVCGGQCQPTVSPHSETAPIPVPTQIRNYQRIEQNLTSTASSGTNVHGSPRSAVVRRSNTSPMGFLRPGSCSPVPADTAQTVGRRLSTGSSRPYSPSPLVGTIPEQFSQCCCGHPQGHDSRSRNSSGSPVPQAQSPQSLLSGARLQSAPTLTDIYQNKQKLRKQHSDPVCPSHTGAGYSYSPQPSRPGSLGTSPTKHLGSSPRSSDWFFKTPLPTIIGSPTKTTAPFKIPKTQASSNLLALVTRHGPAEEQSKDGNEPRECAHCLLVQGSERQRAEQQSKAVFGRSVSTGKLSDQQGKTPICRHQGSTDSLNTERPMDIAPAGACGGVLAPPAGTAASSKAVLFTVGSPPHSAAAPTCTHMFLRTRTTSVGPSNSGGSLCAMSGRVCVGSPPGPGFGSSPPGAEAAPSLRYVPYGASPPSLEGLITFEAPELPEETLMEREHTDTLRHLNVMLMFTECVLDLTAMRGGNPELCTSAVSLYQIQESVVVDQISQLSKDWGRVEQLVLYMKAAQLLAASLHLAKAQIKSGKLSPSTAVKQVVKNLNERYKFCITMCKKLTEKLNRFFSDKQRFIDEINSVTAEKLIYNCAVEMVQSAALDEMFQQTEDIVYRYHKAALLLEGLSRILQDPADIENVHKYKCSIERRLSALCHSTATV
In a few lines:
as §1

The mark [1] stands for this setting: read-out: Residual activity (%) Spautin-1 5aa.
Setting [2] is: read-out: Residual activity (%) 5as.
The mark [3] stands for this setting: read-out: Residual activity (%) 5at.
The mark [4] stands for this setting: read-out: Residual activity (%) 5ay.

Where two headings read alike, the source gives them in different places.

T1 sequence (P45984 whole entry, canonical isoform): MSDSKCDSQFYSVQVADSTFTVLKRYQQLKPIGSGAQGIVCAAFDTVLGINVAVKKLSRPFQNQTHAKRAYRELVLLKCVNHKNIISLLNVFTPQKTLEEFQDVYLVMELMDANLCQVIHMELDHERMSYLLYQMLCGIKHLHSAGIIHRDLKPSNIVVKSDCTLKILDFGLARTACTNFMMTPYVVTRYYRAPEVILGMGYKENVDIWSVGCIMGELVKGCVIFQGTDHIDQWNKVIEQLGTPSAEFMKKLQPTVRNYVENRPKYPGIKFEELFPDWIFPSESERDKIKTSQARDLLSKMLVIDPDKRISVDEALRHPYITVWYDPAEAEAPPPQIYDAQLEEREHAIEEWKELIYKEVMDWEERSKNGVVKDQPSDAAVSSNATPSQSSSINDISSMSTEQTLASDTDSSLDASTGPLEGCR

In the case of `Fc1ccc(CNc2ncnc3ccc(F)cc23)cc1` [5aa, 6-Fluoro-N-(4-fluorobenzyl)-4-Quinazolinamine], the remaining activity at 10 µM on JNK2α2(h) (setting [1]) was 89%; at Rsk4(h) (setting [1]), 117%; on TTK(h) (setting [1]), 64%; at CDK2/cyclinA(h) (setting [1]), 95%; on ULK2(h) (setting [1]), 101%.

`Fc1ccc(CCNc2ncnc3ccc(F)cc23)cc1` [5as, 6-Fluoro-N-[2-(4-Fluorophenyl)Ethyl]-4-Quinazolinamine]: the remaining activity at 10 µM at JNK2α2(h) (setting [2]) is 78%; at Rsk4(h) (setting [2]) it was 81%; at TTK(h) (setting [2]) it was 84%; on CDK2/cyclinA(h) (setting [2]), 82%; at ULK2(h) (setting [2]) it was 93%.

`Fc1ccc2ncnc(NCCc3ccc(Cl)cc3)c2c1` [5at, N-[2-(4-Chlorophenyl)Ethyl]-6-Fluoro-4-Quinazolinamine]: the remaining activity at 10 µM at JNK2α2(h) (setting [3]) turned out to be 88%; on Rsk4(h) (setting [3]), 92%; on TTK(h) (setting [3]), 89%; on CDK2/cyclinA(h) (setting [3]) it was 86%; on ULK2(h) (setting [3]) it was 94%.

On to `COc1ccc2ncnc(Nc3cccc(F)c3)c2c1` [5ay, N-(3-Fluorophenyl)-6-Methoxy-4-Quinazolinamine], for which the remaining activity at 10 µM came to 82% on JNK2α2(h) (setting [4]); 100% at Rsk4(h) (setting [4]); 104% at TTK(h) (setting [4]); 83% at CDK2/cyclinA(h) (setting [4]); 97% at ULK2(h) (setting [4]).
